According to patent publication US12643903B2, “Bifunctional compounds for degradation of EGFR and related methods of use” (BeiGene, Ltd., priority 2020, dated 2026):

Columns and labels:
Assay type in all cases: cell-based
Conditions in all cases: 16 h treatment, EGFR degradation by HTRF
EGFR DTC = assay: Cell Degradation 3: EGFR degradation in BaF3 cells (DTC), HTRF assay
Summary of the method: (§1)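 BaF3 cells expressing EGFR (LTC triple mutant C797S/L858R/T790M or DTC) exposed to compounds for 16 h, 8 doses from 4-fold dilution, 0.2% DMSO. Residual EGFR quantified by HTRF in lysates (triple mutant lysate diluted 1:1); DC50 from four-parameter logistic fit.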

EGFR [1] = molecular target: T1, EGFR (Homo sapiens, UniProt P00533, L858R/T790M); assay: Cell Degradation 1: EGFR degradation in H1975 cells, HTRF assay
T1 construct: endogenous in cells; host or cells: H1975
Summary of the method: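 H1975 cells treated with compound for 16 h, lysed 1 h at room temperature. EGFR measured by HTRF after overnight antibody incubation (665/620 nm). DC50 from four-parameter logistic fit of percent inhibition against concentration.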

EGFR LTC = molecular target: T2, EGFR LTC (Homo sapiens, UniProt P00533, C797S/L858R/T790M); assay: Cell Degradation 3: EGFR degradation in BaF3 cells (LTC), HTRF assay
T2 construct: expressed in transfected cells; host or cells: BaF3
Summary of the method: as §1

EGFR [2] = molecular target: T3, EGFR (Homo sapiens, UniProt P00533, DEL746-750); assay: Cell Degradation 2: EGFR degradation in HCC827 cells, HTRF assay
T3 construct: endogenous in cells; host or cells: HCC827
Summary of the method: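 Compound-treated HCC827 cells were lysed after 16 h and EGFR measured by HTRF (337 nm excitation, 665/620 nm emission) after overnight antibody incubation at room temperature. DC50 came from a four-parameter fit of percent inhibition against compound concentration.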

T2 sequence (P00533 25-1210 T790M/C797S/L858R): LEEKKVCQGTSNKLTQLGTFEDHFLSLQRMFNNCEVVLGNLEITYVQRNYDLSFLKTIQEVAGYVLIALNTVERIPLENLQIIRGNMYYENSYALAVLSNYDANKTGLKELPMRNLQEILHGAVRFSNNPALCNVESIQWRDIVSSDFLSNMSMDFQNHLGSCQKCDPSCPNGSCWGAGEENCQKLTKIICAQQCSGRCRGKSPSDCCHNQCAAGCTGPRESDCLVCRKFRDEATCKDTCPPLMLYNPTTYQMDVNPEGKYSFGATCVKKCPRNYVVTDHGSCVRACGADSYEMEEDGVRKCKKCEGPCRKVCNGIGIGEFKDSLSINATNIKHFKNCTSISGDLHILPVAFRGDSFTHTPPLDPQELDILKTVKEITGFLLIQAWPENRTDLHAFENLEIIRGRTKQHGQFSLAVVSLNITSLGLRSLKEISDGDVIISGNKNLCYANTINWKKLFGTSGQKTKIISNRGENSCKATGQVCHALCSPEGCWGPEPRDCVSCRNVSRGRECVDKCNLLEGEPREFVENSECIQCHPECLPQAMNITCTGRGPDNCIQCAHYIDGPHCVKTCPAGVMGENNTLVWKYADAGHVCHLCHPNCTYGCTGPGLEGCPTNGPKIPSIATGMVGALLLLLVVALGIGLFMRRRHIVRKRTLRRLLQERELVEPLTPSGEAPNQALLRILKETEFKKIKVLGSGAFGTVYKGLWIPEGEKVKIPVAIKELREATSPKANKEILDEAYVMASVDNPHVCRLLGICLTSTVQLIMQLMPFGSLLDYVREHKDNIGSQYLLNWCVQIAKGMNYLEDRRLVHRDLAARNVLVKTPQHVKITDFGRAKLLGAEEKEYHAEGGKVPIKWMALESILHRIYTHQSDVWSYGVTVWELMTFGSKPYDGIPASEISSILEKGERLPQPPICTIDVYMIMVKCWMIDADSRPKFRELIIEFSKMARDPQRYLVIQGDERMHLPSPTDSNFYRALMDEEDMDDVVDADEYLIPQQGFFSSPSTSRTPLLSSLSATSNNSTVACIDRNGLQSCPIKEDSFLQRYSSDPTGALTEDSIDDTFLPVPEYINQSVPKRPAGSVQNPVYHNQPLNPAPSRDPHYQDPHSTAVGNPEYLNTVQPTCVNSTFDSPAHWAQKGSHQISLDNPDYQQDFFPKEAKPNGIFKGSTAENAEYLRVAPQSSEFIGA
T1 sequence (P00533 25-1210 T790M/L858R): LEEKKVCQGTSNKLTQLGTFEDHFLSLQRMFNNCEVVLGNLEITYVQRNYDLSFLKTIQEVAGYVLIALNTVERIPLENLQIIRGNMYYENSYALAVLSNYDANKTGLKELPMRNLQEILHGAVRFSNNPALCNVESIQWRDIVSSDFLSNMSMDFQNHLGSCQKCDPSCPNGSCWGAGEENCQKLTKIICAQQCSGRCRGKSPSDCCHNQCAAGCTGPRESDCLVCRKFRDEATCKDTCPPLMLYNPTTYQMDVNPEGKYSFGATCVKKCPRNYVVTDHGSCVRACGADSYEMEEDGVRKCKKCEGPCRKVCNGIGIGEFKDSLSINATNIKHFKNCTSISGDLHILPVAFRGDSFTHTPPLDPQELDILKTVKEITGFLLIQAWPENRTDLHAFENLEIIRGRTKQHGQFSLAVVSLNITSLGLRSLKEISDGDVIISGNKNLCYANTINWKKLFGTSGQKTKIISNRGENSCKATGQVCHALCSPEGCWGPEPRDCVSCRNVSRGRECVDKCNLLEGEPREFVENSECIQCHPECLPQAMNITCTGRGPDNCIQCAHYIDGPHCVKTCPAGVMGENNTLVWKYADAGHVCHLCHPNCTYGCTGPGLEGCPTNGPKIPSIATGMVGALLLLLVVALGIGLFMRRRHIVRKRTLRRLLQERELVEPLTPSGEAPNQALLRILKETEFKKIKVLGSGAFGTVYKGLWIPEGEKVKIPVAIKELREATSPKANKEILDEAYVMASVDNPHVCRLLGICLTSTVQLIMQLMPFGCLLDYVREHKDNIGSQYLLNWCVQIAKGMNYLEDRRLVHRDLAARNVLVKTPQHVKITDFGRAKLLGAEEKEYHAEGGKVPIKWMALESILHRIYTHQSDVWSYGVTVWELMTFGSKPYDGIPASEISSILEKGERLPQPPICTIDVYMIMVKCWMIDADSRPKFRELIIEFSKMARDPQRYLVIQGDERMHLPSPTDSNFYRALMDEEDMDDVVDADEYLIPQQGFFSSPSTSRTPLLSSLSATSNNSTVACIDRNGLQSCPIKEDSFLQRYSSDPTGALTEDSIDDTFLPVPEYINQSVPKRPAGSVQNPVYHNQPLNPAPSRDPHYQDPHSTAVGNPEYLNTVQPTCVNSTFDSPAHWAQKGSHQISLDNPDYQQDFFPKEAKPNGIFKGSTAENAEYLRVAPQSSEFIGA
T3 sequence (P00533 with tags, fused parts or gaps DEL746-750): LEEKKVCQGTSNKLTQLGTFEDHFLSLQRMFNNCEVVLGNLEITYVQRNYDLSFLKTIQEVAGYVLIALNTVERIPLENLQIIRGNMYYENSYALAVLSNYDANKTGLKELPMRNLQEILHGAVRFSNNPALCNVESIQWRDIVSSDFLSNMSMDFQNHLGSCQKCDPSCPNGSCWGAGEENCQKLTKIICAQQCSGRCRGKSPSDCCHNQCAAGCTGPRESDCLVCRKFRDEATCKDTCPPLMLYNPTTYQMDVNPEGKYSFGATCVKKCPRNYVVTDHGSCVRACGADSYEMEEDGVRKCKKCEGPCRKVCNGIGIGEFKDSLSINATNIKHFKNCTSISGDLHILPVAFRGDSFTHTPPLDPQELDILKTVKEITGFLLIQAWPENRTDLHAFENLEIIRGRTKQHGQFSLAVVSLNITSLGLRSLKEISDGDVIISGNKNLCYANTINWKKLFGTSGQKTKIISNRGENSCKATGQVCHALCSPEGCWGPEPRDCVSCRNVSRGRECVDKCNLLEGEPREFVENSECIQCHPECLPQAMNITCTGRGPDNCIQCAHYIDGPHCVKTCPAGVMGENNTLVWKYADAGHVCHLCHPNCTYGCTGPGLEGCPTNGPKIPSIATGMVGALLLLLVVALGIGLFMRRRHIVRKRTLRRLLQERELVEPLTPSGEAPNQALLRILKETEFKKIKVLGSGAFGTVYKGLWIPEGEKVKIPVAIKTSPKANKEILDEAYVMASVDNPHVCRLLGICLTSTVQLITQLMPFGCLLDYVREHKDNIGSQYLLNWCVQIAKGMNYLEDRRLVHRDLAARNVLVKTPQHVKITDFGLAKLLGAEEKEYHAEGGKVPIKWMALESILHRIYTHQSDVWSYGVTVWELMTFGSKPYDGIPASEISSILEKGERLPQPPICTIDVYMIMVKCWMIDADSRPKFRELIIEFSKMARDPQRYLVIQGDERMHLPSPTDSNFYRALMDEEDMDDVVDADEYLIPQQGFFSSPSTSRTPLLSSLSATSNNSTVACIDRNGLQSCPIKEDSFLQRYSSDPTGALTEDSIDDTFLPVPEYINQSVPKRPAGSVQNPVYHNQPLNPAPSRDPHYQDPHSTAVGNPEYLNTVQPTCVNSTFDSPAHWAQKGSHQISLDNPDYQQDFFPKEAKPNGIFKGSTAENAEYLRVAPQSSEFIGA
T3 sequence (Q96SW2 whole entry partner): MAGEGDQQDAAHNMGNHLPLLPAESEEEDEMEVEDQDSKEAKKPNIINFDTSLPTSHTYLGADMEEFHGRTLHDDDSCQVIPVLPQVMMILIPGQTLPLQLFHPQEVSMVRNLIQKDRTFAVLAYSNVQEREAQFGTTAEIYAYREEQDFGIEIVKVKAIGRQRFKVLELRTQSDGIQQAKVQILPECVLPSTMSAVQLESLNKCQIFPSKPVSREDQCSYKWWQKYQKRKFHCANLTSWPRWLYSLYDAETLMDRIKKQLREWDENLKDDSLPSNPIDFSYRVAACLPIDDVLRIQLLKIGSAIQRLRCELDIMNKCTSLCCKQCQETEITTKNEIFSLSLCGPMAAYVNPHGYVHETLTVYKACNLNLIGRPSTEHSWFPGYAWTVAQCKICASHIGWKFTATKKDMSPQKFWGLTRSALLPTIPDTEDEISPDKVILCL

Question: How did the DC50 (EGFR DTC) turn out when CS(=O)(=O)N1CCc2cccc(Nc3nc(Nc4ccc(N5CCC(N6CCN(C(=O)CCN7CCN(c8ccc9c(c8)C(=O)N(C8CCC(=O)NC8=O)C9=O)CC7)CC6)CC5)c(F)c4)nc4[nH]ccc34)c21 (stereo not shown) [Example 15, 2-(2,6-dioxopiperidin-3-yl)-5-(4-(3-(4-(1-(2-fluoro-4-((4-((1-(methylsulfonyl)indolin-7-yl)amino)-7H-pyrrolo[2,3-d]pyrimidin-2-yl)amino)phenyl)piperidin-4-yl)piperazin-1-yl)-3-oxopropyl)piperazin-1-yl)isoindoline-1,3-dione] was run?
Answer: Its DC50 is 35.8 nM.

Question: And the DC50 (EGFR [1])?
Answer: The DC50 was 0.01 µM.

Question: What about the DC50 (EGFR LTC) of the same molecule?
Answer: The DC50 was 68.3 nM.

Question: And the DC50 (EGFR [2])?
Answer: Its DC50 is 0.0092 µM.

Question: Which DC50 (EGFR DTC) does the source give for CS(=O)(=O)N1CCc2cccc(Nc3nc(Nc4ccc(N5CCC(N6CCN(CCCC7CN(c8ccc9c(c8)C(=O)N(C8CCC(=O)NC8=O)C9=O)C7)CC6)CC5)c(F)c4)nc4[nH]ccc34)c21 (stereo not shown) [Example 19, 2-(2,6-dioxopiperidin-3-yl)-5-(3-(3-(4-(1-(2-fluoro-4-((4-((1-(methylsulfonyl)indolin-7-yl)amino)-7H-pyrrolo[2,3-d]pyrimidin-2-yl)amino)phenyl)piperidin-4-yl)piperazin-1-yl)propyl)azetidin-1-yl)isoindoline-1,3-dione] here?
Answer: Its DC50 is 16.7 nM.

Question: And the DC50 (EGFR [1])?
Answer: Its DC50 is 0.00603 µM.

Question: And the DC50 (EGFR LTC)?
Answer: The DC50 was 24.2 nM.

Question: What about the DC50 (EGFR [2]) of the same molecule?
Answer: Its DC50 is 0.0108 µM.

Question: COc1cc(N2CCC(N3CCN(CCc4ccc(C5CCC(=O)NC5=O)cc4)CC3)CC2)ccc1Nc1ncc(Cl)c(Nc2cccc3c2N(S(C)(=O)=O)CC3)n1 (stereo not shown) [Example 34, 3-(4-(2-(4-(1-(4-((5-chloro-4-((1-(methylsulfonyl)indolin-7-yl)amino)pyrimidin-2-yl)amino)-3-methoxyphenyl)piperidin-4-yl)piperazin-1-yl)ethyl)phenyl)piperidine-2,6-dione] was tested. Which DC50 (EGFR DTC) did it give?
Answer: The DC50 was 38.2 nM.

Question: And the DC50 (EGFR [1])?
Answer: The DC50 was 0.007 µM.

Question: And the DC50 (EGFR LTC)?
Answer: The DC50 was 276 nM.

Question: And the DC50 (EGFR [2])?
Answer: Its DC50 is 0.0067 µM.

Question: COc1cc(N2CCC(N3CCN(CCC4CCN(c5ccc(C6CCC(=O)NC6=O)cc5)CC4)CC3)CC2)ccc1Nc1ncc(Cl)c(Nc2cccc3c2N(S(C)(=O)=O)CC3)n1 (stereo not shown) [Example 35, 3-(4-(4-(2-(4-(1-(4-((5-chloro-4-((1-(methylsulfonyl)indolin-7-yl)amino)pyrimidin-2-yl)amino)-3-methoxyphenyl)piperidin-4-yl)piperazin-1-yl)ethyl)piperidin-1-yl)phenyl)piperidine-2,6-dione] was tested. Which DC50 (EGFR DTC) did it give?
Answer: The DC50 was 48.1 nM.

Question: And the DC50 (EGFR [1])?
Answer: Its DC50 is 0.0072 µM.

Question: And the DC50 (EGFR LTC)?
Answer: Its DC50 is 203 nM.

Question: And the DC50 (EGFR [2])?
Answer: Its DC50 is 0.0084 µM.

Question: Which results are given for COc1cc(N2CCC(N3CCN(CCC4CCN(c5ccc(C6CCC(=O)NC6=O)c(F)c5)CC4)CC3)CC2)ccc1Nc1ncc(Cl)c(Nc2cccc3c2N(S(C)(=O)=O)CC3)n1 (stereo not shown) [Example 36, 3-(4-(4-(2-(4-(1-(4-((5-chloro-4-((1-(methylsulfonyl)indolin-7-yl)amino)pyrimidin-2-yl)amino)-3-methoxyphenyl)piperidin-4-yl)piperazin-1-yl)ethyl)piperidin-1-yl)-2-fluorophenyl)piperidine-2,6-dione]?
Answer: DC50 (EGFR DTC): 26.3 nM; DC50 (EGFR [1]): 0.0155 µM; DC50 (EGFR LTC): 42.6 nM; DC50 (EGFR [2]): 0.0086 µM

Question: What does the source list for COc1cc(N2CCC(N3CCN(CCC4CCN(c5ccc6c(c5)C(=O)N(C5CCC(=O)NC5=O)C6=O)CC4)CC3)CC2)ccc1Nc1ncc(Cl)c(Nc2cccc3c2N(S(C)(=O)=O)CC3)n1 (stereo not shown) [Example 37, 5-(4-(2-(4-(1-(4-((5-chloro-4-((1-(methylsulfonyl)indolin-7-yl)amino)pyrimidin-2-yl)amino)-3-methoxyphenyl)piperidin-4-yl)piperazin-1-yl)ethyl)piperidin-1-yl)-2-(2,6-dioxopiperidin-3-yl)isoindoline-1,3-dione]?
Answer: DC50 (EGFR DTC): 16.7 nM; DC50 (EGFR [1]): 0.0038 µM; DC50 (EGFR LTC): 43.1 nM; DC50 (EGFR [2]): 0.0035 µM

Question: For COc1cc(N2CCN(C3CCN(CCc4ccc(C5CCC(=O)NC5=O)cc4)CC3)CC2)ccc1Nc1ncc(Cl)c(Nc2cccc3c2N(S(C)(=O)=O)CC3)n1 (stereo not shown) [Example 38, 3-(4-(2-(4-(4-(4-((5-chloro-4-((1-(methylsulfonyl)indolin-7-yl)amino)pyrimidin-2-yl)amino)-3-methoxyphenyl)piperazin-1-yl)piperidin-1-yl)ethyl)phenyl)piperidine-2,6-dione], which DC50 (EGFR DTC) is on record?
Answer: The DC50 was 176 nM.

Question: What about the DC50 (EGFR [1]) of the same molecule?
Answer: The DC50 was 0.0098 µM.

Question: And the DC50 (EGFR LTC)?
Answer: Its DC50 is 230 nM.

Question: And the DC50 (EGFR [2])?
Answer: The DC50 was 0.0097 µM.
